Tested on: NT2 cells
Assay: Response of NT2 cells to growth factors: count of viable spherical cells after three days of culture
Format: cell-based, human
Details: growth factor present exclusively in growth medium NS; viable cells counted after three days of culture into spheres; FIG. 3
Description: This step permits to obtain the first passing over into spheres of NT2 cells that are then cultured, preferably at 100000 cells/ml in 75 ml flasks of the FALCON™ (trademark registered by the Falcon company) type having filtering plugs containing 15 ml of growth medium (NS) not containing bovine serum, defined by the following composition: DMEM/F12 (50%/50%), 2 mM glutamine, N2 complement, 0.6% glucose, 20 μg/ml insulin, to which are added extemporaneously growth factors EGF at 20 ng/ml, bFGF at 10 ng/ml, 2 μg/ml heparin or growth factor LIF at 10 ng/ml or 20 n/ml.
The way NT2 cells respond to growth factors […] and bFGF was studied by counting viable spherical cells obtained after three days of culture in the presence either of the one or the other, either of the one and the other of them then dissociated.
Results represented in FIG. 3 show the number of viable cells after three days, whereas the horizontal line indicates culture density.
Although it was found, unexpectedly, that NT2 cells were capable of forming spheres in the absence of growth factors, they proliferate differently under the action of the latter, and according to the type of growth factors added to the growth medium NS.

| Substance | rate of proliferation of NT2 cells multiplied by (with respect to cultures without growth factor) |
| --- | --- |
| EGF: epidermal growth factor, added to growth medium at 20 ng/ml | 1.5 |
| bFGF: basic fibroblast growth factor, added to growth medium at 10 ng/ml | 2.2 |
